Patent US8008456B2, “Compositions containing, methods involving, and uses of non-natural amino acids and polypeptides” (Ambrx, Inc., priority 2004, dated 2011)

Assay: pH stability tests
Assay type: physicochemical
Experimental: This example provides the results of pH stability tests that were conducted on certain illustrative non-natural amino acids as an aid for predicting their properties for incorporation into non-natural amino acid polypeptides.

## COCCOC(=O)NCCO/N=C(\C)C(=O)Nc1ccccc1 [drawing 138]
pH 4.0, 1 hour
  pH stability: 4.0%
pH 4.0, 1 day
  pH stability: <1%
pH 4.0, 2 days
  pH stability: <1%
pH 4.0, 3 days
  pH stability: <1%
pH 4.0, 4 days
  pH stability: <1%
pH 4.0, 5 days
  pH stability: <1%
pH 4.0, 6 days
  pH stability: <1%
pH 4.0, 7 days
  pH stability: <1%
pH 4.0, 10 days
  pH stability: <1%
pH 5.0, 1 hour
  pH stability: 5.0%
pH 5.0, 1 day
  pH stability: <1%
pH 5.0, 2 days
  pH stability: <1%
pH 5.0, 3 days
  pH stability: <1%
pH 5.0, 4 days
  pH stability: <1%
pH 5.0, 5 days
  pH stability: <1%
pH 5.0, 6 days
  pH stability: <1%
pH 5.0, 7 days
  pH stability: <1%
pH 5.0, 10 days
  pH stability: <1%
pH 6.5, 1 hour
  pH stability: 6.5%
pH 6.5, 1 day
  pH stability: <1%
pH 6.5, 2 days
  pH stability: <1%
pH 6.5, 3 days
  pH stability: <1%
pH 6.5, 4 days
  pH stability: <1%
pH 6.5, 5 days
  pH stability: <1%
pH 6.5, 6 days
  pH stability: <1%
pH 6.5, 7 days
  pH stability: <1%
pH 6.5, 10 days
  pH stability: <1%
pH 7.4, 1 hour
  pH stability: 7.4%
pH 7.4, 1 day
  pH stability: <1%
pH 7.4, 2 days
  pH stability: <1%
pH 7.4, 3 days
  pH stability: <1%
pH 7.4, 4 days
  pH stability: <1%
pH 7.4, 5 days
  pH stability: <1%
pH 7.4, 6 days
  pH stability: <1%
pH 7.4, 7 days
  pH stability: <1%
pH 7.4, 10 days
  pH stability: <1%
pH 8.0, 1 hour
  pH stability: 8.0%
pH 8.0, 1 day
  pH stability: <1%
pH 8.0, 2 days
  pH stability: <1%
pH 8.0, 3 days
  pH stability: <1%
pH 8.0, 4 days
  pH stability: <1%
pH 8.0, 5 days
  pH stability: <1%
pH 8.0, 6 days
  pH stability: <1%
pH 8.0, 7 days
  pH stability: <1%
pH 8.0, 10 days
  pH stability: <1%

## COCCOCNCCO/N=C(\C)CC(=O)c1ccccc1 [drawing 139]
pH 4.0, 1 hour
  pH stability: 4.0%
pH 4.0, 1 day
  pH stability: <1%
pH 4.0, 2 days
  pH stability: <1%
pH 4.0, 3 days
  pH stability: <1%
pH 4.0, 4 days
  pH stability: <1%
pH 4.0, 5 days
  pH stability: <1%
pH 4.0, 6 days
  pH stability: <1%
pH 4.0, 7 days
  pH stability: <1%
pH 4.0, 10 days
  pH stability: <1%
pH 5.0, 1 hour
  pH stability: 5.0%
pH 5.0, 1 day
  pH stability: <1%
pH 5.0, 2 days
  pH stability: <1%
pH 5.0, 3 days
  pH stability: <1%
pH 5.0, 4 days
  pH stability: <1%
pH 5.0, 5 days
  pH stability: <1%
pH 5.0, 6 days
  pH stability: <1%
pH 5.0, 7 days
  pH stability: <1%
pH 5.0, 10 days
  pH stability: <1%
pH 6.5, 1 hour
  pH stability: 6.5%
pH 6.5, 1 day
  pH stability: <1%
pH 6.5, 2 days
  pH stability: <1%
pH 6.5, 3 days
  pH stability: <1%
pH 6.5, 4 days
  pH stability: <1%
pH 6.5, 5 days
  pH stability: <1%
pH 6.5, 6 days
  pH stability: <1%
pH 6.5, 7 days
  pH stability: <1%
pH 6.5, 10 days
  pH stability: <1%
pH 7.4, 1 hour
  pH stability: 7.4%
pH 7.4, 1 day
  pH stability: <1%
pH 7.4, 2 days
  pH stability: <1%
pH 7.4, 3 days
  pH stability: <1%
pH 7.4, 4 days
  pH stability: <1%
pH 7.4, 5 days
  pH stability: <1%
pH 7.4, 6 days
  pH stability: <1%
pH 7.4, 7 days
  pH stability: <1%
pH 7.4, 10 days
  pH stability: <1%
pH 8.0, 1 hour
  pH stability: 8.0%
pH 8.0, 1 day
  pH stability: <1%
pH 8.0, 2 days
  pH stability: <1%
pH 8.0, 3 days
  pH stability: <1%
pH 8.0, 4 days
  pH stability: <1%
pH 8.0, 5 days
  pH stability: <1%
pH 8.0, 6 days
  pH stability: <1%
pH 8.0, 7 days
  pH stability: <1%
pH 8.0, 10 days
  pH stability: <1%
